Assay results taken from patent US4228162A (priority 1979, dated 1980).
Values after ≈ are worked out from the molar mass of the structure shown. Read-outs that look alike come from different tables or passages of the source.

What was measured:
gastrointestinal tract = conditions: cited from earlier work
[1] = format: physicochemical; conditions: dimethyl isosorbide versus propylene glycol and polyethylene glycol-400
Text: Ideally, an anhydrous composition is used to prevent hydrolysis.

[2] = cited from earlier work
[3] = Procedure: The samples were prepared using USP grade aspirin, which was dried at 110° before use. […] Spectrum b was taken after the sample (containing 10% water) was stored at 70° C. for 96 hours.
[4] = Hydrolysis (stability) studies of aspirin formulations in dimethyl isosorbide; format: physicochemical
Procedure: No attempt of drying of the drug or the solvent was made prior to the experiment. 25 ml of each of the six formulations were placed in a screw capped bottle which was then kept in a temperature controlled water bath set at a designated temperature. Samples of each of the formulations were pipetted out at selected time intervals, and were immediately analyzed for salicylic acid content. The analysis of salicylic acid was carried out using the fluorometric method previously described. The samples were diluted 1000 times in a volumetric flask, a few μl's of the diluted samples were then transferred into a fluorescence cuvette containing 2 ml of pH 7 buffer for the fluorescence measurement. The hydrolysis studies were carried out at 40, 45, 50, 60 and 70° C. and at room temperature.
The rate constant of aspirin hydrolysis was determined according to the following equation: […]
where Co is the initial concentration of aspirin, C, the concentration of aspirin at time t, and k, the rate constant. For practical purposes, the above equation may be converted to […]

[5] = Arrhenius prediction of aspirin degradation and shelf life; format: physicochemical; conditions: 1.00 M aspirin in dimethyl isosorbide
Procedure: The rate constants determined at various temperatures were used to predict the aspirin degradation at room (25° C.) and refrigeration (5° C.) temperatures using the Arrhenius equation:
log k=log A-Ea /2.303RT (3)
where k is the rate constant at temperature T,A, a constant, R, the gas constant, and Ea, the activation energy of the reaction. A plot of log k versus 1/T should yield a straight line with the slope equal to -Ea /2.303R. For the same reaction, Ea is a constant. From the plot, the rate constants at 25° and 5° can also be calculated. These constants can then be used for the prediction of the shelf life (time for 10% degradation) of the aspirin formulations at room and refrigeration temperatures.
From these values, the shelf-life (time for 10% degradation) of formulation A were predicted to be 230 days at 25° C., and 62.5 months at 5° C.

[6] = Solubility of aspirin in propylene glycol, polyethylene glycol-400 and dimethyl isosorbide; format: physicochemical; conditions: organic solvent or mixture
Procedure: The bottle was constantly shaken at room temperature for 24 hours. The solution was then filtered for analysis. The determination of aspirin contents in the solubility samples was carried out using a fluorometric technique, in which the aspirin was completely hydrolyzed into salicylic acid, and the fluorescence of salicylic acid was then measured. The concentration of salicylic acid in the samples was determined based on a fluorescence calibration curve of known concentrations of salicylic acid in the range of 5×10^-7 M to 5×10^-6 M. The concentration of salicylic acid so determined was then converted to the concentration of aspirin. The solubility of aspirin in various solvents is expressed in mg/ml. The samples were treated as follows: […] After 30 minutes, when the hydrolysis was complete, 0.5 ml of a 1 N HCl was added to the flask to neutralize the excess sodium hydroxide. The solution was then diluted with a pH 7 phosphate buffer to 25 ml. For fluorescence measurement, 1, 2, 3, and 4 μl of the diluted solution were transferred into different fluorescence cuvettes containing 2 ml of pH 7 buffer. The fluorescence measured from these solutions was then used to determine the aspirin content in the solvents.

[7] = cited from earlier work; remark: listed apart in the source

CC(=O)Oc1ccccc1C(=O)O [Aspirin, acetylsalicylic acid]
gastrointestinal bleeding (gastrointestinal tract; aspirin ingestion, users and patients with gastrointestinal lesions): severe gastrointestinal bleeding | occult bleeding (gastrointestinal tract; orally in a liquid form or intravenously): produces no occult bleeding | aspirin stability compared between solvents [1]: more stable in dimethyl isosorbide than in the other solvents | mode of decomposition in polyhydric alcohols (nmr) ([2]; apparently anhydrous polyhydric alcohols): occurs by transesterification of the acid with the polyhydric alcohol as well as by hydrolysis due to the presence of water | hydrolysis kinetics ([2]; aqueous, Edward): follows first order kinetics and is subject to acid and base catalysis | trans-esterification ([2]; polyethylene glycol-400, prolonged storage, Jun et al): undergoes trans-esterification with polyethylene glycol-400 to form salicylic acid and acetylated polyethylene glycol | aspirin degradation by nmr ([3]; 1 M aspirin in dimethyl isosorbide with 10% (v/v) water, 70° C., 96 hours): partially hydrolyzed into salicylic acid and acetic acid | nmr spectral change ([3]; 1 M aspirin in dimethyl isosorbide, no water, heated at 70° for 24 hours): no detectable change was found in the nmr spectrum | cause of aspirin degradation (nmr) [4]: hydrolysis is the only cause for aspirin degradation in dimethyl isosorbide | kinetic order of aspirin hydrolysis ([4]; 50° C., FIG. 3): follows second order kinetics | Time for 10% Degradation ([5]; 5° C.): 62.5 mos. | Time for 10% Degradation ([5]; 25° C.): 230 days | solubility at 24 h ([6]; dimethyl isosorbide): 280 mg/mL (≈ 1550 mM) | solubility at 24 h ([6]; in polyethylene glycol-400, room temperature, 24 hours): 254 mg/mL (≈ 1410 mM) | solubility at 24 h ([6]; in propylene glycol, room temperature, 24 hours): 160 mg/mL (≈ 888 mM) | Time for 10% Degradation ([7]; 5° C., 0.36 M aspirin in polyethylene glycol-400): 2.90 mos. | Time for 10% Degradation ([7]; 5° C., 0.36 M aspirin in propylene glycol): 55.8 mos. | Time for 10% Degradation ([7]; 25° C., 0.36 M aspirin in polyethylene glycol-400): 18.8 days | Time for 10% Degradation ([7]; 25° C., 0.36 M aspirin in propylene glycol): 151.2 days
